Our source for the IC50 values is patent publication US11505547B2, “Compounds” (STEP PHARMA S.A.S., priority 2017, dated 2022).

Each structure is given as a SMILES string.

For the test, the target named is T1, human CTPS1 (Homo sapiens, UniProt P17812).
T1 construct: purchased Proteros biostructures GmbH
T1 sequence (P17812 1-591): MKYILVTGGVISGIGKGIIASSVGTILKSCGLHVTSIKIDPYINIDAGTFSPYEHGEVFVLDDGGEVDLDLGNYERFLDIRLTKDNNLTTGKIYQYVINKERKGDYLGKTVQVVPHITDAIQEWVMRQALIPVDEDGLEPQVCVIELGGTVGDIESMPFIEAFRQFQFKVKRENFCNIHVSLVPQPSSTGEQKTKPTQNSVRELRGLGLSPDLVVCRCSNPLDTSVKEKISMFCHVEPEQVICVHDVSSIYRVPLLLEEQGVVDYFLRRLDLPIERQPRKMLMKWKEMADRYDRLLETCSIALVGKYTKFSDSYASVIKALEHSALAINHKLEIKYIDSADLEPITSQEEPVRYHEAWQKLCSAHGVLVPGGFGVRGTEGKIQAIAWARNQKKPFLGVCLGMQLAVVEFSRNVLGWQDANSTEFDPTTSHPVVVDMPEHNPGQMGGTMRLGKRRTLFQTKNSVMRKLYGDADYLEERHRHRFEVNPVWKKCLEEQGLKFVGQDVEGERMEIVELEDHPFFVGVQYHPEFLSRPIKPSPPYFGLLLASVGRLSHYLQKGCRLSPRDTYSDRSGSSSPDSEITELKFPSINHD
Description: Human CTPS1 enzyme inhibition, ADP-Glo Max assay. Format: biochemical. Conditions: human full length CTPS1, read-out: CTPS1 (Human CTPS1 Enzyme Inhibition data grouped by potency range, IC50). As for the experimental part:
Biological Example 1—Human CTPS1 Enzyme Inhibition
The enzyme inhibitory activities of compounds invented against the target of interest were determined using the ADP-Glo™ Max assay (Promega, UK). Assays for human CTPS1 were performed in 1× assay buffer containing 50 mM Tris, 10 mM MgCl2, 0.01% Tween-20, pH to 8.0 accordingly. Finally, immediately before use, L-cysteine was added to the 1× assay buffer to a final concentration of 2 mM. All reagents are from Sigma-Aldrich unless specified otherwise. Human full length active C-terminal FLAG-Hiss-tag CTPS1 (UniProtKB-P17812, CTPS[1-591]-[…]) was obtained from Proteros biostructures GmbH.
3× human CTPS1 protein was prepared in 1× assay buffer to the final working protein concentration required for the reaction. A 2 uL volume per well of 3× human CTPS1 protein was mixed with 2 uL per well of 3× test compound (compound prepared in 1× assay buffer to an appropriate final 3× compound concentration respective to the concentration response curve designed for the compounds under test) for 10 minutes at 25° C. The enzymatic reaction was then initiated by addition of a 2 uL per well volume of a pre-mixed substrate mix (UltraPure ATP from ADP-Glo™ Max kit (0.31 mM), GTP (0.034 mM), UTP (0.48 mM) and L-glutamine (0.186 mM)) and the mixture was incubated for an appropriate amount of time within the determined linear phase of the reaction at 25° C. under sealed plate conditions with constant agitation at 500 revolutions per minute (rpm). ADP-GIo™ Max reagent was added for 60 minutes (6 uL per well) and subsequently ADP-Glo™ Max development reagent was added for 60 minutes (12 uL per well) prior to signal detection in a microplate reader (EnVision® Multilabel Reader, Perkin Elmer). Following each reagent addition over the course of the assay, assay plates were pulse centrifuged for 30 seconds at 500 rpm.
In all cases, the enzyme converts ATP to ADP and the ADP-Glo™ Max reagent subsequently depletes any remaining endogenous ATP in the reaction system. The ADP-Glo™ Max detection reagent converts the ADP that has been enzymatically produced back into ATP and using ATP as a substrate together with luciferin for the enzyme luciferase, light is generated which produces a detectable luminescence. […] The percentage inhibition produced by each concentration of compound was calculated using the equation shown below: […]
Percentage inhibition was then plotted against compound concentration, and the 50% inhibitory concentration (IC50) was determined from the resultant concentration-response curve.
In general terms: In ADP-Glo the light output rises with the ADP produced.
As for `CCOc1cncc(-c2ccc(C(=O)NC(C)(C)c3nc(NS(=O)(=O)C4CC4)sc3Cl)nc2)n1` [Example R73, N-(2-(5-chloro-2-(cyclopropanesulfonamido)thiazol-4-yl)propan-2-yl)-5-(6-ethoxypyrazin-2-yl)picolinamide], the half-maximal inhibitory concentration (IC50) is 1000 to 10000 nM.

Take `CCOc1cncc(-c2cnc(C(=O)NC(C)(C)c3csc(NS(=O)(=O)C4CC4)n3)c(F)c2)n1` [Example R23, N-(2-(2-(cyclopropanesuIfonamido)thiazol-4-yl)propan-2-yl)-5-(6-ethoxypyrazin-2-yl)-3-fluoropicolinamide]: the concentration for half-maximal inhibition (IC50) was in the range of 100 to 1000 nM. `CCOc1cncc(-c2ccc(C(=O)NCc3csc(NS(=O)(=O)C4CC4)n3)cc2)n1` [Example R14, N-((2-(cyclopropanesulfonamido)thiazol-4-yl)methyl)-4-(6-ethoxypyrazin-2-yl)benzamide]: the IC50 is less than 100 nM. As for `CCC(CC)(NC(=O)c1ccc(-c2cncc(C)n2)cc1)c1csc(NS(=O)(=O)C2CC2)n1` [Example R21, N-(3-(2-(cyclopropanesulfonamido)thiazol-4-yl)pentan-3-yl)-4-(6-methylpyrazin-2-yl)benzamide], the figure is less than 100 nM; as for `CC(C)(NC(=O)c1ccc(-c2cncc(C(F)(F)F)n2)cc1)c1csc(NS(=O)(=O)C2CC2)n1` [Example R51, N-(2-(2-(cyclopropanesulfonamido)thiazol-4-yl)propan-2-yl)-4-(6-(trifluoromethyl)pyrazin-2-yl)benzamide], less than 100 nM; as for `CC(C)(NC(=O)c1ccc(-c2cccc(C(F)(F)F)c2)cc1)c1csc(NS(=O)(=O)C2CC2)n1` [Example R40, N-(2-(2-(cyclopropanesulfonamido)thiazol-4-yl)propan-2-yl)-3′-(trifluoromethyl)-[1,1′-biphenyl]-4-carboxamide], 100 to 1000 nM. As for `CCC(NC(=O)c1ccc(-c2cccnc2)cc1)c1csc(NS(=O)(=O)C2CC2)n1` (racemic) [Example R61, N-(1-(2-(cyclopropanesulfonamido)thiazol-4-yl)propyl)-4-(pyridin-3-yl)benzamide], the figure is 100 to 1000 nM; as for `CC(C)(NC(=O)c1ccc(-c2cncc(OCC(F)(F)F)n2)cc1F)c1csc(NS(=O)(=O)C2CC2)n1` [Example R44, N-(2-(2-(cyclopropanesuIfonamido)thiazol-4-yl)propan-2-yl)-2-fluoro-4-(6-(2,2,2-trifluoroethoxy)pyrazin-2-yl)benzamide], 100 to 1000 nM; as for `CCC(NC(=O)c1ccc(-c2cncc(C)n2)cc1)c1csc(NS(=O)(=O)C2CC2)n1` (racemic) [Example R66, N-(1-(2-(cyclopropanesulfonamido)thiazol-4-yl)propyl)-4-(6-methylpyrazin-2-yl)benzamide], 100 to 1000 nM. As for `CCC(NC(=O)c1ccc(-c2cncc(C(F)(F)F)n2)cc1)c1csc(NS(=O)(=O)C2CC2)n1` (stereo not shown) [Example R5, N-(1-(2-(cyclopropanesulfonamido)thiazol-4-yl)propyl)-4-(6-(trifluoromethyl)pyrazin-2-yl)benzamide], the figure is less than 100 nM; as for `CC(C)(NC(=O)c1ccc(-c2cccnc2)cc1)c1csc(NS(=O)(=O)C2CC2)n1` [Example R39, N-(2-(2-(cyclopropanesulfonamido)thiazol-4-yl)propan-2-yl)-4-(pyridin-3-yl)benzamide], 100 to 1000 nM; as for `CCOc1cncc(-c2ccc(C(=O)N(C)C(CC)c3csc(NS(=O)(=O)C4CC4)n3)c(F)c2)n1` (racemic) [Example R63, N-(1-(2-(cyclopropanesulfonamido)thiazol-4-yl)propyl)-4-(6-ethoxypyrazin-2-yl)-2-fluoro-N-methylbenzamide], 100 to 1000 nM. `CCOc1cncc(-c2ccc(C(=O)NC(C)(C)c3nc(NS(=O)(=O)C4CC4)sc3Cl)c(F)c2)n1` [Example R75, N-(2-(5-chloro-2-(cyclopropanesulfonamido)thiazol-4-yl)propan-2-yl)-4-(6-ethoxypyrazin-2-yl)-2-fluorobenzamide]: the IC50 lay in the range of 100 to 1000 nM. As for `CCC(NC(=O)c1ccc(-c2cncc(C(F)(F)F)c2)cc1)c1csc(NS(=O)(=O)C2CC2)n1` (single isomer, unassigned) [Example R3, N-(1-(2-(cyclopropanesulfonamido)thiazol-4-yl)propyl)-4-(5-(trifluoromethyl)pyridin-3-yl)benzamide], the figure is 100 to 1000 nM. As for `CC(C)(NC(=O)c1ccc(-c2cncc(C(F)(F)F)c2)cc1)c1csc(NS(=O)(=O)C2CC2)n1` [Example R35, N-(2-(2-(cyclopropanesulfonamido)thiazol-4-yl)propan-2-yl)-4-(5-(trifluoromethyl)pyridin-3-yl)benzamide], the figure is less than 100 nM. As to `O=C(NC1(c2csc(NS(=O)(=O)C3CC3)n2)CC1)c1ccc(-c2cncc(C(F)(F)F)n2)cc1` [Example R84, N-(1-(2-(cyclopropanesulfonamido)thiazol-4-yl)cyclopropyl)-4-(6-(trifluoromethyl)pyrazin-2-yl)benzamide], the half-maximal inhibitory concentration (IC50) is less than 100 nM. As for `CC(C)(NC(=O)c1ccc(-c2cncc(F)c2)cc1)c1csc(NS(=O)(=O)C2CC2)n1` [Example R36, N-(2-(2-(cyclopropanesulfonamido)thiazol-4-yl)propan-2-yl)-4-(5-fluoropyridin-3-yl)benzamide], the figure is 100 to 1000 nM; as for `CC(C)Oc1cncc(-c2ccc(C(=O)NCc3csc(NS(=O)(=O)C4CC4)n3)cc2)n1` [Example R13, N-((2-(cyclopropanesulfonamido)thiazol-4-yl)methyl)-4-(6-isopropoxypyrazin-2-yl)benzamide], less than 100 nM; as for `CC(C)Oc1cncc(-c2ccc(C(=O)NC(C)(C)c3csc(NS(=O)(=O)C4CC4)n3)cc2)n1` [Example R56, N-(2-(2-(cyclopropanesulfonamido)thiazol-4-yl)propan-2-yl)-4-(6-isopropoxypyrazin-2-yl)benzamide], less than 100 nM. For `O=C(NCc1csc(NS(=O)(=O)C2CC2)n1)c1ccc(-c2ccccc2)cc1` [Example R9, N-((2-(cyclopropanesulfonamido)thiazol-4-yl)methyl)-[1,1′-biphenyl]-4-carboxamide], the concentration for half-maximal inhibition (IC50) lay in the range of 1000 to 10000 nM. Consider `CCC(NC(=O)c1ccc(-c2cncc(F)c2)cc1)c1csc(NS(=O)(=O)C2CC2)n1` (racemic) [Example R59, N-(1-(2-(cyclopropanesulfonamido)thiazol-4-yl)propyl)-4-(5-fluoropyridin-3-yl)benzamide], for which the IC50 is 100 to 1000 nM. As for `CCC(NC(=O)c1ccc(-c2cncc(Cl)n2)cc1)c1csc(NS(=O)(=O)C2CC2)n1` (racemic) [Example R65, 4-(6-chloropyrazin-2-yl)-N-(1-(2-(cyclopropanesulfonamido)thiazol-4-yl)propyl)benzamide], the figure is less than 100 nM; as for `Cc1cncc(-c2ccc(C(=O)NC(C)(C)c3csc(NS(=O)(=O)C4CC4)n3)cc2)c1` [Example R37, N-(2-(2-(cyclopropanesulfonamido)thiazol-4-yl)propan-2-yl)-4-(5-methylpyridin-3-yl)benzamide], less than 100 nM. As for `CCOc1cncc(-c2ccc(C(=O)NC(CCOC)c3csc(NS(=O)(=O)C4CC4)n3)cc2)n1` (stereo not shown) [Example R90, N-(1-(2-(cyclopropanesulfonamido)thiazol-4-yl)-3-methoxypropyl)-4-(6-ethoxypyrazin-2-yl)benzamide], the figure is less than 100 nM.

Consider `CC(C)(NC(=O)c1ccc(-c2cncc(Cl)n2)cc1)c1csc(NS(=O)(=O)C2CC2)n1` [Example R52, 4-(6-chloropyrazin-2-yl)-N-(2-(2-(cyclopropanesulfonamido)thiazol-4-yl)propan-2-yl)benzamide], for which the IC50 was less than 100 nM.

As a reminder, the IC50 is the midpoint of a concentration-inhibition curve.
